The record followed here is US20240368194A1, “IRAK4 DEGRADATION AGENT, AND PREPARATION METHOD THEREFOR AND USE THEREOF” (SHANGHAI LEADINGTAC PHARMACEUTICAL CO. LTD., priority 2021, published 2024).

For one experiment, the target named is IRAK4 kinase (Homo sapiens (Human), UniProt Q9NWZ3). Put plainly: IRAK4 kinase activity test (KinEASE-STK S1 HTRF kit). The following applies: 2.5 nM IRAK4 kinase, 7 μM ATP, 37° C. 120 min. Format: biochemical. On the procedure: Then 2.5 nM 1RAK4 kinase (Carna), 1 μM biotinylated polypeptide substrate (Cisbio) and 7 μM adenosine triphosphate (Sigma-Aldrich) were sequentially added, and the mixtures were incubated at 37° C. for 120 min. Subsequently, an anti-phosphoserine/threonine antibody (Cisbio) conjugated with a europium element compound and conjugated modified XL665 streptavidin (Cisbio) were added to the reaction systems to stop the reactions. After 1 h of incubation at room temperature, the fluorescence intensity of each well was measured at the excitation wavelength of 337 nm and the emission wavelengths of 620 nm and 665 nm with a microplate reader EnVision (PerkinElmer) in the HTRF mode, and Ratio values were calculated using the formula Ratio=(665 nm/620 nm)×[…]. The inhibition rate of the compound at each concentration was calculated by comparing the fluorescence intensity ratio with that of the control group. Then a non-linear curve fitting of logarithmic concentration-inhibition rate was performed using GraphPad Prism 7, and the IC50 value of the compound was obtained.
IRAK4 kinase, sequence (Q9NWZ3 whole entry): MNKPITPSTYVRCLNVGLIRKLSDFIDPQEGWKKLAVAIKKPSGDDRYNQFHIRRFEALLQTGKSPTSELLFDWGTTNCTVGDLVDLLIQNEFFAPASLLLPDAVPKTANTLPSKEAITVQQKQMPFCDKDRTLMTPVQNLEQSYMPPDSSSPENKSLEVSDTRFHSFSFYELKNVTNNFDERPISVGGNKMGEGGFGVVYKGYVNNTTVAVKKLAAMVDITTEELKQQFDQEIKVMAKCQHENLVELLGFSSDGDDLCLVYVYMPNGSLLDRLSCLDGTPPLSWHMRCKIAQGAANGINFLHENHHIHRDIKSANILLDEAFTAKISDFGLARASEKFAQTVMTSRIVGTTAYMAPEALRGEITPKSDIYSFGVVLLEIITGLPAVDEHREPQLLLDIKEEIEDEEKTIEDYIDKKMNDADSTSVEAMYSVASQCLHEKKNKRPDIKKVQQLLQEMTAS
A general note: TR-FRET usually uses a lanthanide donor and a delayed reading to cut background.

Experiment [1] has as its target IRAK4 protein in THP-1 cells (Homo sapiens (Human), UniProt Q9NWZ3). Description: Degradation of IRAK4 in THP-1 cells, human IRAK4 AlphaLISA assay. In kind it is cell-based. The following applies: 24 h incubation. In short, it runs like this: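 THP-1 cells, after overnight plating, exposed 24 h at 37 °C to compound at 0.03-3000 nM final. Lysate IRAK4 read by Western blot and by AlphaLISA (acceptor beads 10 μg/mL, biotin anti-IRAK4 1 nM, donor beads 40 μg/mL, 23 °C). DC50 and Dmax from log concentration-response fit.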
On the technique in general: Bead proximity is the source of the signal in Alpha formats.

IRAK4 protein in THP-1 cells, sequence (Q9NWZ3 whole entry): as above

In general, IC50 refers to the concentration that inhibits the measured activity by half. A high value points to a need for much substance. By DC50 is commonly meant the concentration at which degradation of the target reaches its halfway point. Higher therefore signals a less potent degrader. The Dmax is the greatest extent of degradation seen. With `COc1ccc(C(=O)N2CCC3(CCC(CCN4CCC(n5cc(NC(=O)c6cnn7ccc(N8CCOCC8)nc67)c(C(F)F)n5)CC4)CC3)CC2)cc1N1CCC(=O)NC1=O` [Example 28, N-(3-(difluoromethyl)-1-(1-(2-(3-(3-(2,4-dioxotetrahydropyrimidin-1(2H)-yl)-4-methoxybenzoyl)-3-azaspiro[5.5]undecan-9-yl)ethyl)piperidin-4-yl)-1H-pyrazol-4-yl)-5-morpholinopyrazolo[1,5-a]pyrimidine-3-carboxamide], the half-inhibitory concentration (IC50) at IRAK4 kinase came to 12.9 nM. Moreover, in experiment [1], it took 3.18 nM to reach half-maximal degradation (DC50) and the Dmax is 89.4%.
In turn, `Cc1ccc(C(=O)N2CCC3(CCC(CN4CCC(n5cc(NC(=O)c6cnn7ccc(N8CCOCC8)nc67)c(C(F)F)n5)CC4)CC3)CC2)cc1N1CCC(=O)NC1=O` [Example 34, N-(3-(difluoromethyl)-1-(1-((3-(3-(2,4-dioxotetrahydropyrimidin-1(2H)-yl)-4-methylbenzoyl)-3-azaspiro[5.5]undecan-9-yl)methyl)piperidin-4-yl)-1H-pyrazol-4-yl)-5-morpholinopyrazolo[1,5-a]pyrimidine-3-carboxamide] displayed an IC50 on IRAK4 kinase of 11 nM. In experiment [1], this compound gave a DC50 of 3.55 nM and a Dmax of 87.1%.
In the same order, the values of `O=C1CCN(c2cc(C(=O)N3CCC(CCN4CCC(n5cc(NC(=O)c6cnn7ccc(N8CCOCC8)nc67)c(C(F)F)n5)CC4)CC3)ccc2F)C(=O)N1` [Example 37, N-(3-(difluoromethyl)-1-(1-(2-(1-(3-(2,4-dioxotetrahydropyrimidin-1(2H)-yl)-4-fluorobenzoyl)piperidin-4-yl)ethyl)piperidin-4-yl)-1H-pyrazol-4-yl)-5-morpholinopyrazolo[1,5-a]pyrimidine-3-carboxamide] are 13.1 nM, 42 nM and 81.1%.
In the same order, the values of `O=C1CCN(c2cc(C(=O)N3CCN(CCCCN4CCC(n5cc(NC(=O)c6cnn7ccc(N8C[C@H]9C[C@@H]8CO9)nc67)c(C(F)F)n5)CC4)CC3)ccc2Cl)C(=O)N1` [Example 40, 5-((1R,4R)-2-oxa-5-azabicyclo[2.2.1]heptan-5-yl)-N-(1-(1-(4-(4-(4-chloro-3-(2,4-dioxotetrahydropyrimidin-1(2H)-yl)benzoyl)piperazin-1-yl)-n-butyl)piperidin-4-yl)-3-(difluoromethyl)-1H-pyrazol-4-yl)pyrazolo[1,5-a]pyrimidine-3-carboxamide] are 34.5 nM, 32.8 nM and 79.2%.
In the case of `O=C1CCN(c2cc(C(=O)N3CCC4(CCC(CCN5CCC(n6cc(NC(=O)c7cnn8ccc(N9CCOCC9)nc78)c(C(F)F)n6)CC5)CC4)CC3)ccc2Cl)C(=O)N1` [Example 42, N-(1-(1-(2-(3-(4-chloro-3-(2,4-dioxotetrahydropyrimidin-1(2H)-yl)benzoyl)-3-azaspiro[5.5]undecan-9-yl)ethyl)piperidin-4-yl)-3-(difluoromethyl)-1H-pyrazol-4-yl)-5-morpholinopyrazolo[1,5-a]pyrimidine-3-carboxamide], the IC50 against IRAK4 kinase was determined as 18.6 nM. Also, in experiment [1], the DC50 was determined as 3.66 nM and the Dmax is 91.7%.
For `O=C1CCN(c2cc(C(=O)N3CCC4(CCC(CCN5CCC(n6cc(NC(=O)c7cnn8ccc(N9C[C@H]%10C[C@@H]9CO%10)nc78)c(C(F)F)n6)CC5)CC4)CC3)ccc2Cl)C(=O)N1` [Example 43, 5-((1R,4R)-2-oxa-5-azabicyclo[2.2.1]heptan-5-yl)-N-(1-(1-(2-(3-(4-chloro-3-(2,4-dioxotetrahydropyrimidin-1(2H)-yl)benzoyl)-3-azaspiro[5.5]undecan-9-yl)ethyl)piperidin-4-yl)-3-(difluoromethyl)-1H-pyrazol-4-yl)pyrazolo[1,5-a]pyrimidine-3-carboxamide] the same measures were 45 nM, 15.1 nM and 79.5%.
In the same order, the values of `Cc1ccc(C(=O)N2CCC3(CCC(CN4CCC(n5cc(NC(=O)c6cnn7ccc(N8C[C@H]9C[C@@H]8CO9)nc67)c(C(F)F)n5)CC4)CC3)CC2)cc1N1CCC(=O)NC1=O` [Example 44, 5-((1R,4R)-2-oxa-5-azabicyclo[2.2.1]heptan-5-yl)-N-(3-(difluoromethyl)-1-(1-((3-(3-(2,4-dioxotetrahydropyrimidin-1(2H)-yl)-4-methylbenzoyl)-3-azaspiro[5.5]undecan-9-yl)methyl)piperidin-4-yl)-1H-pyrazol-4-yl)pyrazolo[1,5-a]pyrimidine-3-carboxamide] are 13.4 nM, 6.3 nM and 80.5%.
With `Cc1ccc(C(=O)N2CCC3(CCC(CN4CCC(n5cc(NC(=O)c6cnn7ccc(N8CCC[C@H](N)C8)nc67)c(C(F)F)n5)CC4)CC3)CC2)cc1N1CCC(=O)NC1=O` [Example 49, (S)-5-(3-aminopiperidin-1-yl)-N-(3-(difluoromethyl)-1-(1-((3-(3-(2,4-dioxotetrahydropyrimidin-1(2H)-yl)-4-methylbenzoyl)-3-azaspiro[5.5]undecan-9-yl)methyl)piperidin-4-yl)-1H-pyrazol-4-yl)pyrazolo[1,5-a]pyrimidine-3-carboxamide], on IRAK4 kinase, the IC50 is 7.05 nM. In experiment [1], this compound gave a DC50 of 3.22 nM and a Dmax of 97.1%.
Regarding `Cc1ccc(C(=O)N2CCC3(CCC(CN4CCC(n5cc(NC(=O)c6cnn7ccc(N8CC9(COC9)C8)nc67)c(C(F)F)n5)CC4)CC3)CC2)cc1N1CCC(=O)NC1=O` [Example 50, N-(3-(difluoromethyl)-1-(1-((3-(3-(2,4-dioxotetrahydropyrimidin-1(2H)-yl)-4-methylbenzoyl)-3-azaspiro[5.5]undecan-9-yl)methyl)piperidin-4-yl)-1H-pyrazol-4-yl)-5-(2-oxa-6-azaspiro[3.3]heptan-6-yl)pyrazolo[1,5-a]pyrimidine-3-carboxamide], the IC50 at IRAK4 kinase was determined as 36.7 nM. In experiment [1], this compound had a DC50 of 5.94 nM and a Dmax of 82.1%.
For `O=C1CCN(c2cc(C(=O)N3CCC4(CCC(CN5CCC(n6cc(NC(=O)c7cnn8ccc(N9CCOCC9)nc78)c(C(F)F)n6)CC5)CC4)CC3)ccc2OC(F)(F)F)C(=O)N1` [Example 52, N-(3-(difluoromethyl)-1-(1-((3-(3-(2,4-dioxotetrahydropyrimidin-1(2H)-yl)-4-(trifluoromethoxy)benzoyl)-3-azaspiro[5.5]undecan-9-yl)methyl)piperidin-4-yl)-1H-pyrazol-4-yl)-5-morpholinopyrazolo[1,5-a]pyrimidine-3-carboxamide] the same measures were 23.8 nM, 18.4 nM and 95.4%.
In the same order, the values of `Cc1ccc(C(=O)N2CCC3(CCC(CN4CCC(n5cc(NC(=O)c6cnn7ccc(N8CCS(=O)(=O)CC8)nc67)c(C(F)F)n5)CC4)CC3)CC2)cc1N1CCC(=O)NC1=O` [Example 55, N-(3-(difluoromethyl)-1-(1-((3-(3-(2,4-dioxotetrahydropyrimidin-1(2H)-yl)-4-methylbenzoyl)-3-azaspiro[5.5]undecan-9-yl)methyl)piperidin-4-yl)-1H-pyrazol-4-yl)-5-(1,1-dioxothiomorpholinyl)pyrazolo[1,5-a]pyrimidine-3-carboxamide] are 21.3 nM, 7.52 nM and 79.2%.
For `Cc1ccc(C(=O)N2CCC3(CCC(CN4CCC(n5cc(NC(=O)c6cnn7ccc(N8CCC[C@H](O)C8)nc67)c(C(F)F)n5)CC4)CC3)CC2)cc1N1CCC(=O)NC1=O` [Example 56, (S)-N-(3-(difluoromethyl)-1-(1-((3-(3-(2,4-dioxotetrahydropyrimidin-1(2H)-yl)-4-methylbenzoyl)-3-azaspiro[5.5]undecan-9-yl)methyl)piperidin-4-yl)-1H-pyrazol-4-yl)-5-(3-hydroxypiperidin-1-yl)pyrazolo[1,5-a]pyrimidine-3-carboxamide] the same measures were 3.87 nM, 0.41 nM and 96.4%.
On IRAK4 kinase, `O=C1CCN(c2cc(C(=O)N3CCC4(CCC(CN5CCC(n6cc(NC(=O)c7cnn8ccc(N9CCC[C@H](O)C9)nc78)c(C(F)F)n6)CC5)CC4)CC3)ccc2Cl)C(=O)N1` [Example 57, (S)-N-(1-(1-((3-(4-chloro-3-(2,4-dioxotetrahydropyrimidin-1(2H)-yl)benzoyl)-3-azaspiro[5.5]undecan-9-yl)methyl)piperidin-4-yl)-3-(difluoromethyl)-1H-pyrazol-4-yl)-5-(3-hydroxypiperidin-1-yl)pyrazolo[1,5-a]pyrimidine-3-carboxamide] showed an IC50 of 4.57 nM. Moreover, in experiment [1], the DC50 is 0.58 nM and the Dmax amounted to 96.6%.
For `COc1ccc(C(=O)N2CCC3(CCN(CCCN4CCC(n5cc(NC(=O)c6cnn7ccc(N8CCOCC8)nc67)c(C(F)F)n5)CC4)CC3)CC2)cc1N1CCC(=O)NC1=O` [Example 60, N-(3-(difluoromethyl)-1-(1-(3-(9-(3-(2,4-dioxotetrahydropyrimidin-1(2H)-yl)-4-methoxybenzoyl)-3,9-diazaspiro[5.5]undecan-3-yl)propyl)piperidin-4-yl)-1H-pyrazol-4-yl)-5-morpholinopyrazolo[1,5-a]pyrimidine-3-carboxamide] the same measures were 21.9 nM, 9.36 nM and 96.6%.
